Data set [1] deals with MOLM13 xenograft model of AML. It counts as in vivo.
Description: 5 × 10^6 MOLM13 cells were implanted subcutaneously into 5-6 week-old female CB17 SCID mice in serum free media with Matrigel 1:1. Tumor volume and body weights were monitored twice a week until the tumors reached ~ 150 mm^3. […] At the end of study, tumor, plasma, and liver tissues were collected at the indicated timepoints post-last dose for PK and biomarker analyses. […] Venetoclax was formulated with 60% Phosal 50, 30% PEG 400, and 10% ethanol and stored at 4° C.
Data set [2] concerns OCILY19 xenograft model of DLBCL. In kind it is in vivo.
Description: 5 × 10^6 OCILY cells were implanted subcutaneously into 5-6 week-old female CB17 SCID mice in serum free media with Matrigel 1:1. Tumor volume and body weights were monitored twice a week until the tumors reached ~ 150 mm^3. […] At the end of study, tumor, plasma, and liver tissues were collected at the indicated timepoints post-last dose for PK and biomarker analyses. […] Venetoclax was formulated with 60% Phosal 50, 30% PEG 400, and 10% ethanol and stored at 4° C.
The conditions of data set [3]: cited from earlier work.

Read-outs that look alike come from different tables or passages of the source.

For the molecule “4-(4-{ [2-(4-chlorophenyl)-4,4- dimethylcyclohex-1-en-1-yl]methyl}piperazin-1-yl)-N-({3-nitro-4-[(tetrahydro-2H-pyran-4-ylmethyl)amino]phenyl}sulfonyl)-2-(1H-pyrrolo[2,3-b]pyridin-5-yloxy)benzamide) [Venetoclax]”, the “Tumor Growth Inhibition” value in data set [1] (Venetoclax 30 mg/kg alone) is reported as 27%; in data set [2] (Venetoclax 1 mg/kg alone) it was 3.6%. Also, the “effect on tumor growth” value in data set [2] (venetoclax alone at the 1 m/kg dose) is given as “no effect”.

Consider `Nc1ncn([C@@H]2O[C@H](CO)[C@@H](O)[C@H]2O)c(=O)n1` [Azacitidine, 4-amino-1-β-D-ribofuranozyl-s-triazin-2(1H)-one], for which the solubility entry in data set [3] (acetone, ethanol and methyl ketone) is “insoluble”; in data set [3] (dimethylsulfoxide (DMSO)), “soluble”; in data set [3] (ethanol/water (50/50), propylene glycol and polyethylene glycol), “slightly soluble”; in data set [3] (water, water-saturated octanol, 5% dextrose in water, N-methyl-2-pyrrolidone, normal saline and 5% Tween 80 in water), “sparingly soluble”.

Turning to `Cc1ccccc1-c1ccc(-c2cc(C(=O)O)c3c(c2)nnn3C)cc1` [Compound 1, 1-methyl-5-(2′-methyl-[1,1′-biphenyl]-yl)-1H-benzo[d][1,2,3]triazole-7-carboxylic acid], the “Tumor Growth Inhibition” value in data set [1] (Compound 1 30 mg/kg alone) worked out at 24%; in data set [2] (Compound 1 30 mg/kg BID alone), 56%.

As to `Nc1ncn([C@H]2C[C@H](O)[C@@H](CO)O2)c(=O)n1` [Decitabine, 4-amino-1-(2-deoxy-β-D-erythro-pentofuranosyl)-1,3,5-triazin-2(1H)one], the solubility entry in data set [3] (dimethylsulfoxide (DMSO)) was “soluble”; in data set [3] (ethanol/water (50/50), methanol/water (50/50) and methanol), “slightly soluble”; in data set [3] (water), “sparingly soluble”.

The values are drawn from patent US20230285364A1, “USE OF A DHODH INHIBITOR COMPOUND IN COMBINATION CANCER THERAPY” (Servier Pharmaceuticals LLC, priority 2020, published 2023).
